Measured values reported in patent US10214531B2 (Institute for Drug Discovery, LLC, priority 2013, dated 2019).
Counter-ions that a name gives are not always drawn.

These compounds were tested against recombinant human AMCase (Homo sapiens, UniProt Q9BZP6) (assay: Human AMCase Activity Assay). Settings: recombinant hAMCase, 4-methylumbelliferyl chitobioside substrate, citrate buffer pH 5.2, 37° C., 60 minutes; read-out: Activity (IC50 value key).
Sequence of recombinant human AMCase (Q9BZP6 22-476): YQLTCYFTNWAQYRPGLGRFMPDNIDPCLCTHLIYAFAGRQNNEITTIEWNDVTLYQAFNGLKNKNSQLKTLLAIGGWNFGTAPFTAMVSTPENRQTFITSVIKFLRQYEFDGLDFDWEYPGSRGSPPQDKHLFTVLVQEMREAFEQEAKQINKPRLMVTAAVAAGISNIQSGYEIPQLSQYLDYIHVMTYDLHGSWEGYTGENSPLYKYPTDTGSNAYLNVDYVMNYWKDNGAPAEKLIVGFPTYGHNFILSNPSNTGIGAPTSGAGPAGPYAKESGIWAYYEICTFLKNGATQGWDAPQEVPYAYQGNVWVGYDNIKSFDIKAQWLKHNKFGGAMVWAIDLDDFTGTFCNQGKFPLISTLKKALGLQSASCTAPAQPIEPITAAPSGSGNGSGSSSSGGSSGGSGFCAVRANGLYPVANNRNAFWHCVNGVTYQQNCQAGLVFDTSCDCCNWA
Type: biochemical
Method: Human AMCase Activity Assay
The assay was run in the 96-well plate format, each reaction in the total volume of 100 μl. 4-Methylumbelliferyl B-D-N,N′ diacetylchitobioside hydrate was used as a substrate for the enzyme. Upon hydrolysis by AMCase, the substrate releases 4-methylumbelliferyl (4MU), when ionized in basic pH, emits fluorescence of 460 nm.
Briefly, 40 μl of a substrate was added to each well, followed by 10 μl of compound dilution and 50 μl of hAMCase recombinant enzyme solution. The reaction was carried out in citrate buffer, pH 5.2, in the dark, at 37° C. for 60 minutes with shaking.
For `Cc1ccc(CN(CCc2ccc(Cl)cc2)C2CCN(c3nc(N)n[nH]3)CC2)cc1` [Example 102, 1-(3-amino-1H-1,2,4-triazol-5-yl)-N-(4-chlorophenethyl)-N-(4-methylbenzyl) piperidin-4-amine], the IC50 was < 0.1 µM.
`Nc1n[nH]c(N2CCN(C(CCc3ccc(Br)cc3)Cc3ccccc3)CC2)n1` (stereo not drawn) [Example 257, 5-(4-(4-(4-bromophenyl)-1-phenylbutan-2-yl)piperazin-1-yl)-1H-1,2,4-triazol-3-amine trifluoroacetate] was tested, and the IC50 was 0.1 to 1 µM.
For `Nc1nc(N2CCC(N(CCc3ccc(Cl)cc3)Cc3cccc(Cl)c3)CC2)n[nH]1` [Example 110, 1-(3-amino-1H-1,2,4-triazol-5-yl)-N-(3-chlorobenzyl)-N-(4-chlorophenethyl) piperidin-4-amine dihydrochloride], the IC50 was < 0.1 µM.
`Nc1n[nH]c(N2CCN(CCOCc3ccccc3)CC2)n1` [Example 80, 5-(4-(2-(benzyloxy)ethyl)piperazin-1-yl)-1H-1,2,4-triazol-3-amine] was tested, and the IC50 was > 100 µM.
For `Nc1n[nH]c(N2CCC(CNS(=O)(=O)c3ccc(Br)cc3)CC2)n1` [Example 12, N-((1-(3-amino-1H-1,2,4-triazol-5-yl)piperidin-4-yl)methyl)-4-bromobenzenesulfonamide], the IC50 was > 100 µM.
In the case of `Nc1n[nH]c(N2CCN(C(=O)COc3ccc(Cl)c([N+](=O)[O-])c3)CC2)n1` [Example 74, 1-(4-(3-amino-1H-1,2,4-triazol-5-yl)piperazin-1-yl)-2-(4-chloro-3-nitrophenoxy)ethanone], the IC50 is reported as > 100 µM.
With `CN(Cc1ccc(Cl)cc1)C1CCN(c2nc(N)n[nH]2)CC1` [Example 148, 1-(3-amino-1H-1,2,4-triazol-5-yl)-N-(4-chlorobenzyl)-N-methylpiperidin-4-amine dihydrochloride] the IC50 was > 100 µM.
Work on `Nc1n[nH]c(N2CCC(CCCCO)(NS(=O)(=O)Cc3ccc(Br)cc3)CC2)n1` [Example 256, N-(1-(3-amino-1H-1,2,4-triazol-5-yl)-4-(4-hydroxybutyl)piperidin-4-yl)-1-(4-bromophenyl)methanesulfonamide] yielded an IC50 of 1 to 10 µM.
In the case of `CN(C1CCN(c2nc(N)n[nH]2)CC1)C1CCc2ccccc2C1` (stereo not drawn) [Example 250, 1-(3-amino-1H-1,2,4-triazol-5-yl)-N-methyl-N-(1,2,3,4-tetrahydronaphthalen-2-yl)piperidin-4-amine dihydrochloride], the IC50 is reported as > 100 µM.
`Nc1n[nH]c(N2CCC(C(=O)NCc3ccc(OC(F)(F)F)cc3)CC2)n1` [Example 205, 1-(3-amino-1H-1,2,4-triazol-5-yl)-N-(4-(trifluoromethoxy)benzyl)piperidine-4-carboxamide] was tested, and the IC50 was > 100 µM.
With `CN(CCc1ccc(Br)cc1)C1CCN(c2nc(N)n[nH]2)CC1CCCO` (stereo not drawn) [Example 246, 3-(1-(3-amino-1H-1,2,4-triazol-5-yl)-4-((4-bromophenethyl)(methyl)amino)piperidin-3-yl)propan-1-ol] the IC50 was < 0.1 µM.
For `CC(=O)NC(CC(=O)N1CCN(c2nc(N)n[nH]2)CC1)c1ccc(F)cc1` (stereo not drawn) [Example 76, N-(3-(4-(3-amino-1H-1,2,4-triazol-5-yl)piperazin-1-yl)-1-(4-fluorophenyl)-3-oxopropyl)acetamide], the IC50 was > 100 µM.
In the case of `CN(C)C(CC(=O)N1CCN(c2nc(N)n[nH]2)CC1)c1ccccc1F` (stereo not drawn) [Example 242, 1-(4-(3-amino-1H-1,2,4-triazol-5-yl)piperazin-1-yl)-3-(dimethylamino)-3-(2-fluorophenyl)propan-1-one dihydrochloride], the IC50 is reported as > 100 µM.
In the case of `CN(CCc1ccc(Cl)cc1)C1CCN(c2nc(N)n[nH]2)CC1F` (stereo not drawn) [Example 249, 1-(3-amino-1H-1,2,4-triazol-5-yl)-N-(4-chlorophenethyl)-3-fluoro-N-methylpiperidin-4-amine], the IC50 is reported as 1 to 10 µM.
`Nc1n[nH]c(N2CCC(N(CCc3ccc(Cl)cc3)CCc3ccc(Cl)cc3)CC2)n1` [Example 162, 1-(3-amino-1H-1,2,4-triazol-5-yl)-N,N-bis(4-chlorophenethyl)piperidin-4-amine] was tested, and the IC50 was < 0.1 µM.
`CC1CN(c2nc(N)n[nH]2)CCN1CCOc1ccc(Br)cc1` (stereo not drawn) [Example 26, 5-(4-(2-(4-bromophenoxy)ethyl)-3-methylpiperazin-1-yl)-1H-1,2,4-triazol-3-amine] was tested, and the IC50 was 1 to 10 µM.
`Nc1n[nH]c(N2CCN(CCOc3ccc(Cl)cc3)CC2)n1` [Example 2, 5-(4-(2-(4-chlorophenoxy)ethyl)piperazin-1-yl)-1H-1,2,4-triazol-3-amine] was tested, and the IC50 was 1 to 10 µM.
`Nc1n[nH]c(N2CCC(NCCc3ccc(Br)cc3)CC2)n1` [Example 22, 1-(3-amino-1H-1,2,4-triazol-5-yl)-N-(4-bromophenethyl)piperidin-4-amine] was tested, and the IC50 was 1 to 10 µM.
Work on `Nc1n[nH]c(N2CCC(NCCc3ccc(Cl)cc3)CC2)n1` [Example 88, 1-(3-amino-1H-1,2,4-triazol-5-yl)-N-(4-chlorophenethyl)piperidin-4-amine] yielded an IC50 of 1 to 10 µM.
In the case of `CC1(C(=O)NCc2ccc(Br)cc2)CCN(c2nc(N)n[nH]2)CC1` [Example 237, 1-(3-amino-1H-1,2,4-triazol-5-yl)-N-(4-bromobenzyl)-4-methylpiperidine-4-carboxamide], the IC50 is reported as > 100 µM.
In the case of `Cn1nc(N)nc1N1CCN(CCOc2ccc(Br)cc2)CC1` [Example 27-2, 5-(4-(2-(4-bromophenoxy)ethyl)piperazin-1-yl)-1-methyl-1H-1,2,4-triazol-3-amine], the IC50 is reported as > 100 µM.
For `Nc1n[nH]c(N2CCC(N(CCc3ccc(Cl)cc3)Cc3ccccc3CO)CC2)n1` [Example 164, (2-(((1-(3-amino-1H-1,2,4-triazol-5-yl)piperidin-4-yl)(4-chlorophenethyl)amino)methyl)phenyl)methanol dihydrochloride], the IC50 was < 0.1 µM.
With `C[C@@H](CN1CCN(c2nc(N)n[nH]2)CC1)Oc1ccc(Br)cc1` [Example 62, (S)-5-(4-(2-(4-bromophenoxy)propyl)piperazin-1-yl)-1H-1,2,4-triazol-3-amine] the IC50 was 0.1 to 1 µM.
In the case of `Cc1ccc(OC(C)C(=O)N2CCN(c3nc(N)n[nH]3)CC2)c(Cl)c1` (stereo not drawn) [Example 45, 1-(4-(3-amino-1H-1,2,4-triazol-5-yl)piperazin-1-yl)-2-(2-chloro-4-methylphenoxy)propan-1-one], the IC50 is reported as > 100 µM.
Work on `CCC(CN1CCN(c2nc(N)n[nH]2)CC1)Oc1ccc(Cl)cc1` (stereo not drawn) [Example 216, 5-(4-(2-(4-chlorophenoxy)butyl)piperazin-1-yl)-1H-1,2,4-triazol-3-aminedihydrochloride] yielded an IC50 of 1 to 10 µM.
With `CC1CN(c2nc(N)n[nH]2)CCC1NCCc1ccc(Cl)cc1` (mixture of isomers) [Example 132, 1-(3-amino-1H-1,2,4-triazol-5-yl)-N-(4-chlorophenethyl)-3-methylpiperidin-4-amine dihydrochloride (4:1 diastereoisomeric mixture)] the IC50 was 0.1 to 1 µM.
`Nc1n[nH]c(N2CCN(C(=O)CC(N)c3ccc(Cl)cc3)CC2)n1` (stereo not drawn) [Example 40, 3-amino-1-(4-(3-amino-1H-1,2,4-triazol-5-yl)piperazin-1-yl)-3-(4-chlorophenyl)propan-1-one] was tested, and the IC50 was > 100 µM.
With `Nc1n[nH]c(N2CCC(C(=O)NCc3ccccc3Cl)CC2)n1` [Example 198, 1-(3-amino-1H-1,2,4-triazol-5-yl)-N-(2-chlorobenzyl)piperidine-4-carboxamide] the IC50 was > 100 µM.
Compound `Cc1ccccc1CCN(C)C1CCN(c2nc(N)n[nH]2)CC1` [Example 179, 1-(3-amino-1H-1,2,4-triazol-5-yl)-N-methyl-N-(2-methylphenethyl)piperidin-4-amine] has an IC50 of 10 to 100 µM.
In the case of `Nc1n[nH]c(N2CCN(C(=O)[C@@H](N)Cc3ccc(Cl)cc3Cl)CC2)n1` [Example 75-1, (S)-2-amino-1-(4-(3-amino-1H-1,2,4-triazol-5-yl)piperazin-1-yl)-3-(2,4-dichlorophenyl)propan-1-one dihydrochloride], the IC50 is reported as > 100 µM.
`CN(CCc1ccccc1C(F)(F)F)C1CCN(c2nc(N)n[nH]2)CC1` [Example 169, 1-(3-amino-1H-1,2,4-triazol-5-yl)-N-methyl-N-(2-(trifluoromethyl)phenethyl)piperidin-4-amine] gave an IC50 of 1 to 10 µM.
With `Nc1n[nH]c(N2CCN(CCOc3ccc(Cl)c4ccccc34)CC2)n1` [Example 23, 5-(4-(2-((4-chloronaphthalen-1-yl)oxy)ethyl)piperazin-1-yl)-1H-1,2,4-triazol-3-amine] the IC50 was 1 to 10 µM.
`Nc1n[nH]c(N2CCN(CCOc3ccccc3)CC2)n1` [Example 78, 5-(4-(2-phenoxyethyl)piperazin-1-yl)-1H-1,2,4-triazol-3-amine] was tested, and the IC50 was > 100 µM.
In the case of `CCC(Cc1ccc(Cl)cc1)N(C)C1CCN(c2nc(N)n[nH]2)CC1` (stereo not drawn) [Example 160, 1-(3-amino-1H-1,2,4-triazol-5-yl)-N-(1-(4-chlorophenyl)butan-2-yl)-N-methylpiperidin-4-amine], the IC50 is reported as 1 to 10 µM.
With `CCOc1ccc(CN2CCN(c3nc(N)n[nH]3)CC2)cc1` [Example 3, 5-(4-(4-ethoxybenzyl)piperazin-1-yl)-1H-1,2,4-triazol-3-amine] the IC50 was > 100 µM.
In the case of `Nc1n[nH]c(N2CCC(NCCc3ccc(Cl)cc3)C(CCCO)C2)n1` (stereo not drawn) [Example 251, 3-(1-(3-amino-1H-1,2,4-triazol-5-yl)-4-((4-chlorophenethyl)amino)piperidin-3-yl)propan-1-ol dihydrochloride], the IC50 is reported as < 0.1 µM.
In the case of `C[C@@H](CN1CCN(c2nc(N)n[nH]2)CC1)Oc1ccc(Cl)cc1` [Example 65, (S)-5-(4-(2-(4-chlorophenoxy)propyl)piperazin-1-yl)-1H-1,2,4-triazol-3-amine], the IC50 is reported as 10 to 100 µM.
In the case of `Nc1n[nH]c(N2CCN(C(=O)OCc3ccccc3)CC2)n1` [Example 47, benzyl 4-(3-amino-1H-1,2,4-triazol-5-yl)piperazine-1-carboxylate], the IC50 is reported as > 100 µM.
`C[C@H](Oc1ccc(Cl)cc1)C(=O)N1CCN(c2nc(N)n[nH]2)CC1` [Example 10, (S)-1-(4-(3-amino-1H-1,2,4-triazol-5-yl)piperazin-1-yl)-2-(4-chlorophenoxy)propan-1-one] was tested, and the IC50 was > 100 µM.
